# Assay results reported in patent US8222246B2, “Substituted isoxazoles” (Hoffmann-La Roche Inc., priority 2009, dated 2012).
# Target: T1, GABA A α5 (α5β3γ2) (Homo sapiens, UniProt P18507+P31644)
# T1 construct: expressed in transfected cells; host or cells: HEK293 (transiently transfected), membranes
# Experiment: [3H]flumazenil competition binding assay, human GABA A α5 receptors in HEK293 cells
# Details: competition for [3H]flumazenil (0.5 nM); HEK293 cells expressing human (transiently transfected) receptors; means of two determinations; read-out: hKi GABA A α5
# Procedure: Membrane Preparation and Binding Assay
# The affinity of compounds at GABA A receptor subtypes was measured by competition for [3H]flumazenil (85 Ci/mmol; Roche) binding to HEK293 cells expressing rat (stably transfected) or human (transiently transfected) receptors of composition α1β3γ2, α2β3γ2, α3β3γ2 and α5β3γ2.
# Cell pellets were suspended in Krebs-tris buffer (4.8 mM KCl, 1.2 mM CaCl2, 1.2 mM MgCl2, 120 mM NaCl, 15 mM Tris; pH 7.5; binding assay buffer), homogenized by polytron for ca. 20 sec on ice and centrifuged for 60 min at 4° C. (50000 g; Sorvall, rotor: SM24=20000 rpm). The cell pellets were resuspended in Krebs-tris buffer and homogenized by polytron for ca. 15 sec on ice. Protein was measured (Bradford method, Bio-Rad) and aliquots of 1 mL were prepared and stored at −80° C.
# Radioligand binding assays were carried out in a volume of […] (96-well plates) which contained […] of cell membranes, [3H]flumazenil at a concentration of 1 nM for α1, α2, α3 subunits and 0.5 nM for α5 subunits and the test compound in the range of […]. Nonspecific binding was defined by 10^−5 M diazepam and typically represented less than 5% of the total binding. Assays were incubated to equilibrium for 1 hour at 4° C. and harvested onto GF/C uni-filters (Packard) by filtration using a Packard harvester and washing with ice-cold wash buffer (50 mM Tris; pH 7.5). After drying, filter-retained radioactivity was detected by liquid scintillation counting. Ki values were calculated using Excel-Fit (Microsoft) and are the means of two determinations.
# Representative test results, obtained by the above described assay measuring binding affinity to HEK293 cells expressing human (h) receptors, are shown in table 1 below.
row,Compound,Ki [nM]
1,"Cn1cc(NC(=O)c2ccc(OCc3c(-c4ccc(Cl)cc4)noc3CO)nc2)cn1 [Example 24, 6-[3-(4-Chloro-phenyl)-5-hydroxymethyl-isoxazol-4-ylmethoxy]-N-(1-methyl-1H-pyrazol-4-yl)-nicotinamide]",0.7
2,"CCCCc1noc(CO)c1COc1ccc(C(=O)NC(C)C)cn1 [Example 49, 6-(3-Butyl-5-hydroxymethyl-isoxazol-4-ylmethoxy)-N-isopropyl-nicotinamide]",16
3,"O=C(NCCO)c1ccc(OCc2c(-c3ccccc3)noc2CO)nc1 [Example 2, N-(2-Hydroxy-ethyl)-6-(5-hydroxymethyl-3-phenyl-isoxazol-4-ylmethoxy)-nicotinamide]",1.6
4,"O=C(NCC1CC1)c1ccc(OCc2c(-c3ccc(F)cc3)noc2CO)nc1 [Example 6, N-Cyclopropylmethyl-6-[3-(4-fluoro-phenyl)-5-hydroxymethyl-isoxazol-4-ylmethoxy]-nicotinamide]",1.7
5,"CC(C)NC(=O)c1ccc(OCc2c(-c3ccc(F)cc3)noc2CO)nc1 [Example 4, 6-[3-(4-Fluoro-phenyl)-5-hydroxymethyl-isoxazol-4-ylmethoxy]-N-isopropyl-nicotinamide]",1.1
6,"CC(NC(=O)c1ccc(OCc2c(-c3ccc(F)c(F)c3)noc2CO)nc1)C(F)(F)F (stereo not shown) [Example 32, 6-[3-(3,4-Difluoro-phenyl)-5-hydroxymethyl-isoxazol-4-ylmethoxy]-N-(2,2,2-trifluoro-1-methyl-ethyl)-nicotinamide]",1.8
7,"Cn1cc(NC(=O)c2ccc(OCc3c(-c4ccc(F)cc4)noc3CO)nc2)cn1 [Example 16, 6-[3-(4-Fluoro-phenyl)-5-hydroxymethyl-isoxazol-4-ylmethoxy]-N-(1-methyl-1H-pyrazol-4-yl)-nicotinamide]",0.9
8,"O=C(c1ccc(OCc2c(-c3ccc(F)cc3)noc2CO)nc1)N1CCS(=O)(=O)CC1 [Example 3, (1,1-Dioxo-1,6-thiomorpholin-4-yl)-{6-[3-(4-fluoro-phenyl)-5-hydroxymethyl-isoxazol-4-ylmethoxy]-pyridin-3-yl}-methanone]",8.6
9,"CC(C)NC(=O)c1ccc(OCc2c(-c3ccccn3)noc2CO)nc1 [Example 44, 6-(5-Hydroxymethyl-3-pyridin-2-yl-isoxazol-4-ylmethoxy)-N-isopropyl-nicotinamide]",0.7
10,"O=C(NCC1CC1)c1ccc(OCc2c(-c3ccc(F)c(F)c3)noc2CO)nc1 [Example 30, N-Cyclopropylmethyl-6-[3-(3,4-difluoro-phenyl)-5-hydroxymethyl-isoxazol-4-ylmethoxy]-nicotinamide]",4
11,"CC(C)(CO)NC(=O)c1ccc(OCc2c(-c3ccc(F)c(F)c3)noc2CO)nc1 [Example 34, 6-[3-(3,4-Difluoro-phenyl)-5-hydroxymethyl-isoxazol-4-ylmethoxy]-N-(2-hydroxy-1,1-dimethyl-ethyl)-nicotinamide]",13.6
12,"O=C(NN1CCCC1)c1ccc(OCc2c(-c3ccc(F)c(F)c3)noc2CO)nc1 [Example 42, 6-[3-(3,4-Difluoro-phenyl)-5-hydroxymethyl-isoxazol-4-ylmethoxy]-N-pyrrolidin-1-yl-nicotinamide]",4.5
13,"CN(C)C(=O)c1ccc(OCc2c(-c3ccc(Cl)cc3)noc2CO)nc1 [Example 22, 6-[3-(4-Chloro-phenyl)-5-hydroxymethyl-isoxazol-4-ylmethoxy]-N,N-dimethyl-nicotinamide]",43.4
14,"Cn1cc(NC(=O)c2ccc(OCc3c(-c4ccc(F)c(F)c4)noc3CO)nc2)cn1 [Example 39, 6-[3-(3,4-Difluoro-phenyl)-5-hydroxymethyl-isoxazol-4-ylmethoxy]-N-(1-methyl-1H-pyrazol-4-yl)-nicotinamide]",2.1
15,"O=C(c1ccc(OCc2c(-c3ccccn3)noc2CO)nc1)N1CCOCC1 [Example 54, [6-(5-Hydroxymethyl-3-pyridin-2-yl-isoxazol-4-ylmethoxy)-pyridin-3-yl]-morpholin-4-yl-methanone]",67.2
16,"O=C(NC1CCOC1)c1ccc(OCc2c(-c3ccccn3)noc2CO)nc1 (stereo not shown) [Example 45, 6-(5-Hydroxymethyl-3-pyridin-2-yl-isoxazol-4-ylmethoxy)-N-(tetrahydrofuran-3-yl)-nicotinamide]",1.8
17,"CC[C@H](CO)NC(=O)c1ccc(OCc2c(-c3ccc(F)c(F)c3)noc2CO)nc1 [Example 37, 6-[3-(3,4-Difluoro-phenyl)-5-hydroxymethyl-isoxazol-4-ylmethoxy]-N-([R]-1-hydroxymethyl-propyl)-nicotinamide]",4.4
18,"O=C(c1ccc(OCc2c(-c3ccc(Cl)cc3)noc2CO)nc1)N1CCS(=O)(=O)CC1 [Example 18, {6-[3-(4-Chloro-phenyl)-5-hydroxymethyl-isoxazol-4-ylmethoxy]-pyridin-3-yl}-(1,1-dioxo-1-thiomorpholin-4-yl)-methanone]",3.5
19,"O=C(c1ccc(OCc2c(-c3ccc(F)cn3)noc2CO)nc1)N1CCS(=O)(=O)CC1 [Example 56, (1,1-Dioxo-1,6-thiomorpholin-4-yl)-{6-[3-(5-fluoro-pyridin-2-yl)-5-hydroxymethyl-isoxazol-4-ylmethoxy]-pyridin-3-yl}-methanone]",13.5
20,"O=C(c1ccc(OCc2c(-c3ccccn3)noc2CO)nc1)N1CCS(=O)(=O)CC1 [Example 43, (1,1-Dioxo-1,6-thiomorpholin-4-yl)-[6-(5-hydroxymethyl-3-pyridin-2-yl-isoxazol-4-ylmethoxy)-pyridin-3-yl]-methanone]",10.8
21,"O=C(N[C@H]1CCC[C@@H]1O)c1ccc(OCc2c(-c3ccc(F)cc3)noc2CO)nc1 (racemic) [Example 10, 6-[3-(4-Fluoro-phenyl)-5-hydroxymethyl-isoxazol-4-ylmethoxy]-N-((1R,2R)-2-hydroxy-cyclopentyl)-nicotinamide or 6-[3-(4-Fluoro-phenyl)-5-hydroxymethyl-isoxazol-4-ylmethoxy]-N-((1S,2S)-2-hydroxy-cyclopentyl)-nicotinamide]",1.6
22,"CC(C)NC(=O)c1ccc(OCc2c(-c3ccccc3)noc2CO)nc1 [Example 1, 6-(5-Hydroxymethyl-3-phenyl-isoxazol-4-ylmethoxy)-N-isopropyl-nicotinamide]",2.2
23,"CC[C@H](CO)NC(=O)c1ccc(OCc2c(-c3ccc(F)cc3)noc2CO)nc1 [Example 14, 6-[3-(4-Fluoro-phenyl)-5-hydroxymethyl-isoxazol-4-ylmethoxy]-N-((R)-1-hydroxymethyl-propyl)-nicotinamide]",3.5
24,"O=C(NN1CCOCC1)c1ccc(OCc2c(-c3ccccn3)noc2CO)nc1 [Example 48, 6-(5-Hydroxymethyl-3-pyridin-2-yl-isoxazol-4-ylmethoxy)-N-morpholin-4-yl-nicotinamide]",1.7
25,"CCCCc1noc(CO)c1COc1ccc(C(=O)N2CCC2)cn1 [Example 53, Azetidin-1-yl-[6-(3-Butyl-5-hydroxymethyl-isoxazol-4-ylmethoxy)-pyridin-3-yl]-methanone]",51.3
